Source: US20230355536A1, “OZONE-BASED LOW TEMPERATURE SILICON OXIDE COATING FOR PHARMACEUTICAL APPLICATIONS” (Applied Materials, Inc., priority 2022, published 2023)

Tests used:
Assay type in all cases: physicochemical
[1] = FTIR spectrum of API particles before and after coating process; settings: coated versus uncoated API particles
Source text: FIGS. 2A-2B (FIG. 2B is a zoom-in image of FIG. 2A) show the FTIR spectrum of the coated and uncoated acetaminophen API particles.
FIGS. 6A-6B (FIG. 6B is a zoom-in image of FIG. 6A) show the FTIR spectrum of the coated and uncoated theophylline API particles.
FIGS. 9A-9B (FIG. 9B is a zoom-in image of FIG. 9A) show the FTIR spectrum of the coated and uncoated API-1 particles.

[2] = HPLC analysis of API integrity after ozone treatment; settings: ozone generated with oxygen flow rate of 10, 30 and 50 sccm
Procedure: To test whether ozone treatment will affect the integrity of the API, the API (acetaminophen) was treated with ozone at various concentrations. Here, ozone was created by an ozone generator with various oxygen flow rates. The lower the oxygen flow rate, the high the ozone concentration is. Specifically, the API (acetaminophen) was treated with ozone generated with an oxygen flow rate of 10 sccm, 30 sccm and 50 sccm. FIGS. 8A-8D show the HPLC analysis of the API (acetaminophen) after ozone treatment. […] As shown in FIGS. 8A-8D, there were no new peaks (impurity) generated after ozone exposure with as low as 10 sccm oxygen flow rate (highest O3 concentration)

[3] = Wetting/dispersity of particles in DI water; settings: acetaminophen particles dissolved into DI water
Procedure: The coated API (acetaminophen) particles were dissolved into DI water to test the wetting/dispersity properties of these particles.
As a control group, API (acetaminophen) was also treated with silane to apply a monolayer of silane.

| Structure (SMILES) | change in FTIR signals before and after the coating process [1] | new peaks (impurity) in HPLC after ozone exposure [2] | wetting/dispersity [3] |
| --- | --- | --- | --- |
| Cn1c(=O)c2[nH]cnc2n(C)c1=O [theophylline, reference compound] | no significant change |  |  |
| CC(=O)Nc1ccc(O)cc1 [acetaminophen] | no significant change | no new peaks | poor wetting/dispersity |
